Laboratory results as given in ChEMBL document CHEMBL4251615, “Discovery of anilino-furo[2,3-d]pyrimidine derivatives as dual inhibitors of EGFR/HER2 tyrosine kinase and their anticancer activity” (Eur J Med Chem, 2018).

Assays:
NCI-H460 = assay: Growth inhibition of human NCI-H460 cells assessed as cell growth at 10 uM incubated for 48 hrs by sulforhodamine B assay relative to control; format: functional; details: NCI-H460, 48 h, read-out: Activity
RXF 393 = assay: Growth inhibition of human RXF393 cells assessed as cell growth at 10 uM incubated for 48 hrs by sulforhodamine B assay relative to control; format: functional; details: RXF 393, 48 h, read-out: Activity
LOX IMVI = assay: Growth inhibition of human LOXIMVI cells assessed as cell growth at 10 uM incubated for 48 hrs by sulforhodamine B assay relative to control; format: functional; details: read-out: Activity
CAKI-1 = assay: Growth inhibition of human Caki1 cells assessed as cell growth at 10 uM incubated for 48 hrs by sulforhodamine B assay relative to control; format: functional; details: CAKI-1, 48 h, read-out: Activity
NCI/ADR-RES = assay: Growth inhibition of human NCI/ADR-RES cells assessed as cell growth at 10 uM incubated for 48 hrs by sulforhodamine B assay relative to control; format: functional; details: read-out: Activity
NCI-H226 = assay: Growth inhibition of human NCI-H226 cells assessed as cell growth at 10 uM incubated for 48 hrs by sulforhodamine B assay relative to control; format: functional; details: NCI-H226, 48 h, read-out: Activity
OVCAR-4 = assay: Growth inhibition of human OVCAR4 cells assessed as cell growth at 10 uM incubated for 48 hrs by sulforhodamine B assay relative to control; format: functional; details: OVCAR-4, 48 h, read-out: Activity
T47D = assay: Growth inhibition of human T47D cells assessed as cell growth at 10 uM incubated for 48 hrs by sulforhodamine B assay relative to control; format: functional; details: read-out: Activity
MDA-MB-231 = assay: Growth inhibition of human MDA-MB-231 cells assessed as cell growth at 10 uM incubated for 48 hrs by sulforhodamine B assay relative to control; format: functional; details: MDA-MB-231, 48 h, read-out: Activity
OVCAR-3 = assay: Growth inhibition of human OVCAR3 cells assessed as cell growth at 10 uM incubated for 48 hrs by sulforhodamine B assay relative to control; format: functional; details: OVCAR-3, 48 h, read-out: Activity
A498 = assay: Growth inhibition of human A498 cells assessed as cell growth at 10 uM incubated for 48 hrs by sulforhodamine B assay relative to control; format: functional; details: A498, 48 h, read-out: Activity
HOP-62 = assay: Growth inhibition of human HOP62 cells assessed as cell growth at 10 uM incubated for 48 hrs by sulforhodamine B assay relative to control; format: functional; details: HOP-62, 48 h, read-out: Activity
NCI-H322M = assay: Growth inhibition of human NCI-H322M cells assessed as cell growth at 10 uM incubated for 48 hrs by sulforhodamine B assay relative to control; format: functional; details: read-out: Activity
U-251 = assay: Growth inhibition of human U251 cells assessed as cell growth at 10 uM incubated for 48 hrs by sulforhodamine B assay relative to control; format: functional; details: U-251, 48 h, read-out: Activity
ACHN = assay: Growth inhibition of human ACHN cells assessed as cell growth at 10 uM incubated for 48 hrs by sulforhodamine B assay relative to control; format: functional; details: read-out: Activity
MDA-MB-468 = assay: Growth inhibition of human MDA-MB-468 cells assessed as cell growth at 10 uM incubated for 48 hrs by sulforhodamine B assay relative to control; format: functional; details: MDA-MB-468, 48 h, read-out: Activity
SF-539 = assay: Growth inhibition of human SF539 cells assessed as cell growth at 10 uM incubated for 48 hrs by sulforhodamine B assay relative to control; format: functional; details: SF-539, 48 h, read-out: Activity
SF-268 = assay: Growth inhibition of human SF268 cells assessed as cell growth at 10 uM incubated for 48 hrs by sulforhodamine B assay relative to control; format: functional; details: SF-268, 48 h, read-out: Activity
HOP-92 = assay: Growth inhibition of human HOP92 cells assessed as cell growth at 10 uM incubated for 48 hrs by sulforhodamine B assay relative to control; format: functional; details: HOP-92, 48 h, read-out: Activity
BT-549 = assay: Growth inhibition of human BT549 cells assessed as cell growth at 10 uM incubated for 48 hrs by sulforhodamine B assay relative to control; format: functional; details: BT-549, 48 h, read-out: Activity
SNB-19 = assay: Growth inhibition of human SNB19 cells assessed as cell growth at 10 uM incubated for 48 hrs by sulforhodamine B assay relative to control; format: functional; details: SNB-19, 48 h, read-out: Activity
[1] = molecular target: Epidermal growth factor receptor (Homo sapiens, UniProt P00533); assay: Inhibition of recombinant human C-terminal His/N-terminal GST-tagged EGFR (668 to 1210 residues) expressed in baculovirus infected Sf9 cells at 10 uM using biotin-labeled poly[Glu:Tyr] (4:1) as substrate after 30 mins by Kinase-Glo plus luminescence assay relative to control
Epidermal growth factor receptor, sequence (P00533 whole entry, the tested form may be a part): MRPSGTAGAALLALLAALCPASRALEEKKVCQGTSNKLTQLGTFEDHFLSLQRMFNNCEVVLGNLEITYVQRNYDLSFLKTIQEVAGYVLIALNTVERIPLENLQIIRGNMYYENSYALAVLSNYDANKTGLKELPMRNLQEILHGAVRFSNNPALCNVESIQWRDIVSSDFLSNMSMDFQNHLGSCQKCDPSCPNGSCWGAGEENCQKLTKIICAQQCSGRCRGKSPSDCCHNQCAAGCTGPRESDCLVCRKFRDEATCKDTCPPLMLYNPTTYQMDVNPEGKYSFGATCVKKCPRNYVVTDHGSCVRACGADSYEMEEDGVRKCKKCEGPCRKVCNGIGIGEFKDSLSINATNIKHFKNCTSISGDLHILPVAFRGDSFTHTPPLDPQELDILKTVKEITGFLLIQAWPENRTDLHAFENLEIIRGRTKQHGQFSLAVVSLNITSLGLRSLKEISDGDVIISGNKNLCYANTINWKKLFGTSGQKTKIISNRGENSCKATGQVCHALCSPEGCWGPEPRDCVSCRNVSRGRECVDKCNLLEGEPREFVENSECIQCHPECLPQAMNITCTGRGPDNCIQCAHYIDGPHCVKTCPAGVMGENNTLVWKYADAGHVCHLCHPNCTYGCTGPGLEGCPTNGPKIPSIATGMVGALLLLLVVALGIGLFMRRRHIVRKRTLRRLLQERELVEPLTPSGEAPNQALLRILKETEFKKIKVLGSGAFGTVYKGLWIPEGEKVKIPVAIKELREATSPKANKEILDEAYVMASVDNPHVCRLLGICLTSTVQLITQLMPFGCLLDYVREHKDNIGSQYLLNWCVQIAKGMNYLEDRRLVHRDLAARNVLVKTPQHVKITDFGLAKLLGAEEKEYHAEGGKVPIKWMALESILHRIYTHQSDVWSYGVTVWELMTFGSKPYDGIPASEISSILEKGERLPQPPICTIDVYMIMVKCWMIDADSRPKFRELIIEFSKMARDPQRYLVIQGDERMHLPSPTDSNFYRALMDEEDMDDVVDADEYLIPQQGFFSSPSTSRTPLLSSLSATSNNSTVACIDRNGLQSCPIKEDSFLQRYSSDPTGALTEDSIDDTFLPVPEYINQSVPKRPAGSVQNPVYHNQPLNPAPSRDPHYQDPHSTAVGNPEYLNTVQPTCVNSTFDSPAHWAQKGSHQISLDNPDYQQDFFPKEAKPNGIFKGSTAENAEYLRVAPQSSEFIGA

K562 = assay: Growth inhibition of human K562 cells assessed as cell growth at 10 uM incubated for 48 hrs by sulforhodamine B assay relative to control; format: functional; details: K562, 48 h, read-out: Activity
MCF7 = assay: Growth inhibition of human MCF7 cells assessed as cell growth at 10 uM incubated for 48 hrs by sulforhodamine B assay relative to control; format: functional; details: MCF7, 48 h, read-out: Activity
HCT-15 = assay: Growth inhibition of human HCT15 cells assessed as cell growth at 10 uM incubated for 48 hrs by sulforhodamine B assay relative to control; format: functional; details: HCT-15, 48 h, read-out: Activity
SF-295 = assay: Growth inhibition of human SF295 cells assessed as cell growth at 10 uM incubated for 48 hrs by sulforhodamine B assay relative to control; format: functional; details: SF-295, 48 h, read-out: Activity

Compound | growth at 10 µM (NCI-H460) [%] | growth at 10 µM (RXF 393) [%] | growth at 10 µM (LOX IMVI) [%] | growth at 10 µM (CAKI-1) [%] | growth at 10 µM (NCI/ADR-RES) [%] | growth at 10 µM (NCI-H226) [%] | growth at 10 µM (OVCAR-4) [%] | growth at 10 µM (T47D) [%] | growth at 10 µM (MDA-MB-231) [%] | growth at 10 µM (OVCAR-3) [%] | growth at 10 µM (A498) [%] | growth at 10 µM (HOP-62) [%] | growth at 10 µM (NCI-H322M) [%] | growth at 10 µM (U-251) [%] | growth at 10 µM (ACHN) [%] | growth at 10 µM (MDA-MB-468) [%] | growth at 10 µM (SF-539) [%] | growth at 10 µM (SF-268) [%] | growth at 10 µM (HOP-92) [%] | growth at 10 µM (BT-549) [%] | also measured
CCOC(=O)c1c(C)oc2ncnc(Nc3ccc(F)cc3)c12 | 100 | 99.8 | 99.5 | 97.9 | 101 | 100 | 99.1 | 99.6 | 86.8 | 104 | 80.4 | 101 | 101 | 98 | 99 | 103 | 93.6 | 98.5 | 90.8 | 98.5 | growth at 10 µM (SNB-19): 91.4%; inhibition [1]: 6%
Cc1oc2ncnc(Nc3cccc(Cl)c3)c2c1CO | 94 | 85.4 | 98.4 | 53.7 | 86 | 80.6 | 92.5 | 78.8 | 76.5 | 102 | 51.6 | 89 | 95 | 92.3 | 76.7 | 69.1 | 91.6 | 92.9 | 90.5 | 81.9 | growth at 10 µM (K562): 85.4%; growth at 10 µM (MCF7): 89.7%; growth at 10 µM (HCT-15): 67.3%; growth at 10 µM (SF-295): 93.2%; growth at 10 µM (SNB-19): 87.3%; inhibition [1]: 69%
Cc1oc2ncnc(Nc3ccccc3)c2c1C(=O)NCCO | 98.6 | 104 | 95.4 | 90.8 | 102 | 106 | 103 | 99.4 | 75 | 102 | 78.2 | 99 | 108 | 102 | 91.8 | 109 | 88.6 | 99.8 | 88.6 | 90.1 | growth at 10 µM (K562): 29.4%; growth at 10 µM (MCF7): 98.6%; growth at 10 µM (HCT-15): 98%; growth at 10 µM (SF-295): 100%; growth at 10 µM (SNB-19): 93.9%; inhibition [1]: 8%
